Source: patent publication US11419806B2, “Prebiotic oral care methods using a saccharide” (Colgate-Palmolive Company, priority 2013, dated 2022)

Tests used:
Assay in all cases: Twenty-four hour biofilm growth (crystal violet)
Format in all cases: cell-based
A. actinomycetemcomitans = system: A. actinomycetemcomitans
Experimental: (§1) The increase in biofilm formation of the tested bacteria in response to selected saccharides (D-turanose, D-lactitol, myo-inositol, and N-acetyl-D-mannosamine) was investigated by setting up biofilm growth assays in a nutritionally rich medium (brain heart infusion broth (BHI), Oxoid), over 24 hours. Late exponential growth phase liquid cultures were prepared by transferring the respective bacterium from blood agar plates to BHI and overnight incubation at 37° C. in an anaerobic atmosphere for A. viscosus, V. parvula, P. gingivalis, P. intermedia, T. forsythia, A. naeslundii, and C. sputigena, and in a 5% CO2 environment for S. salivarius, S. sanguinis, S. mitis, A. actinomycetemcomitans, S. mutans, and S. gordonii. Overnight cultures were transferred to BHI and adjusted to a concentration of 1×10^7 CFU/ml by measuring the optical density at 600 nm (OD600) (BioRad SmartSpec 3000). For each strain, 200 μl of the bacterial suspension was added to a 96-well plate containing 20 μl of the respective saccharides. Final concentrations of the saccharides were set to 5, 10, 20 and 25 μmol/ml. […] Additionally, for each bacterium tested, a background control, to correct for background staining, was added. This background control contained the bacterium tested and 0.03 weight % chlorhexidine, as an antiseptic. Plates were incubated as previously described. After 24 hrs the supernatant was removed from the wells of the plates. The wells were washed twice with 1×100 μL PBS (phosphate buffered saline), fixed for 20 minutes with 96% vol. ethanol (96% vol. solution in water) and the biofilm retained at the bottom of the wells was stained with 1 weight % crystal violet (1 weight % solution in water). The bound dye was dissolved with 5% vol. acetic acid (5% vol. solution in water). Quantification of the stained biofilm was performed by measuring the absorbance at 630 nm using a Multiskan Ascent microplate reader (Thermo Scientific).
(§2) The experiment was carried out on three different days (thus providing 3 biological replicas) and each day the experiment was carried out in quadruple (thus providing 4 technical replicas) for each combination of bacterium with saccharide and for each control. For each day and for each combination, the average (mean) of the values obtained (as detailed above) for the four technical replicas was calculated to provide a single value for each combination on each day. The values shown in Tables 7a, 7b, 8a, 8b, below, are the average (mean) of the three single values obtained for each combination of bacterium with saccharide.

A. naeslundii = system: A. naeslundii
Experimental: as §1, §2

A. viscosus = system: A. viscosus
Experimental: as §1, §2

C. sputigena = system: C. sputigena
Experimental: as §1, §2

P. gingivalis = system: P. gingivalis
Experimental: as §1, §2

P. intermedia = system: P. intermedia
Experimental: as §1, §2

S. gordonii = system: S. gordonii
Experimental: as §1, §2

S. mitis = system: S. mitis
Experimental: as §1, §2

S. mutans = conditions: S mutans
Experimental: as §1, §2

S. salivarius = system: S. salivarius
Experimental: as §1, §2

S. sanguinis = system: S. sanguinis
Experimental: as §1, §2

T. forsythia = system: T. forsythia
Experimental: as §1, §2

V. parvula = system: V. parvula
Experimental: as §1, §2

## OC[C@H]1O[C@@](O)(CO)[C@@H](O[C@H]2O[C@H](CO)[C@@H](O)[C@H](O)[C@H]2O)[C@@H]1O [D-Turanose, α-D-glucopyranosyl-(1→3)-α-D-fructofuranose]
A. actinomycetemcomitans; 5 μmol/ml
  biofilm growth: OD 630 nm at 24 hrs divided by OD of control (control = 1): 0.9734
A. actinomycetemcomitans; 10 μmol/ml
  biofilm growth: OD 630 nm at 24 hrs divided by OD of control (control = 1): 0.9794
A. actinomycetemcomitans; 20 μmol/ml
  biofilm growth: OD 630 nm at 24 hrs divided by OD of control (control = 1): 1.0297
A. actinomycetemcomitans; 25 μmol/ml
  biofilm growth: OD 630 nm at 24 hrs divided by OD of control (control = 1): 0.9417
A. naeslundii; 5 μmol/ml
  biofilm growth: OD 630 nm at 24 hrs divided by OD of control (control = 1): 1.5849
A. naeslundii; 10 μmol/ml
  biofilm growth: OD 630 nm at 24 hrs divided by OD of control (control = 1): 1.4372
A. naeslundii; 20 μmol/ml
  biofilm growth: OD 630 nm at 24 hrs divided by OD of control (control = 1): 1.4348
A. naeslundii; 25 μmol/ml
  biofilm growth: OD 630 nm at 24 hrs divided by OD of control (control = 1): 1.4411
A. viscosus; 5 μmol/ml
  biofilm growth: OD 630 nm at 24 hrs divided by OD of control (control = 1): 0.1692
A. viscosus; 10 μmol/ml
  biofilm growth: OD 630 nm at 24 hrs divided by OD of control (control = 1): 0.0920
A. viscosus; 20 μmol/ml
  biofilm growth: OD 630 nm at 24 hrs divided by OD of control (control = 1): 0.0289
A. viscosus; 25 μmol/ml
  biofilm growth: OD 630 nm at 24 hrs divided by OD of control (control = 1): 0.0366
C. sputigena; 5 μmol/ml
  biofilm growth: OD 630 nm at 24 hrs divided by OD of control (control = 1): 0.9429
C. sputigena; 10 μmol/ml
  biofilm growth: OD 630 nm at 24 hrs divided by OD of control (control = 1): 0.9387
C. sputigena; 20 μmol/ml
  biofilm growth: OD 630 nm at 24 hrs divided by OD of control (control = 1): 0.9130
C. sputigena; 25 μmol/ml
  biofilm growth: OD 630 nm at 24 hrs divided by OD of control (control = 1): 0.9464
P. gingivalis; 5 μmol/ml
  biofilm growth: OD 630 nm at 24 hrs divided by OD of control (control = 1): 0.9121
P. gingivalis; 10 μmol/ml
  biofilm growth: OD 630 nm at 24 hrs divided by OD of control (control = 1): 0.8700
P. gingivalis; 20 μmol/ml
  biofilm growth: OD 630 nm at 24 hrs divided by OD of control (control = 1): 0.9602
P. gingivalis; 25 μmol/ml
  biofilm growth: OD 630 nm at 24 hrs divided by OD of control (control = 1): 0.9613
P. intermedia; 5 μmol/ml
  biofilm growth: OD 630 nm at 24 hrs divided by OD of control (control = 1): 2.0059
P. intermedia; 10 μmol/ml
  biofilm growth: OD 630 nm at 24 hrs divided by OD of control (control = 1): 1.8143
P. intermedia; 20 μmol/ml
  biofilm growth: OD 630 nm at 24 hrs divided by OD of control (control = 1): 1.5017
P. intermedia; 25 μmol/ml
  biofilm growth: OD 630 nm at 24 hrs divided by OD of control (control = 1): 1.1725
S. gordonii; 5 μmol/ml
  biofilm growth: OD 630 nm at 24 hrs divided by OD of control (control = 1): 1.0874
S. gordonii; 10 μmol/ml
  biofilm growth: OD 630 nm at 24 hrs divided by OD of control (control = 1): 1.1335
S. gordonii; 20 μmol/ml
  biofilm growth: OD 630 nm at 24 hrs divided by OD of control (control = 1): 1.1002
S. gordonii; 25 μmol/ml
  biofilm growth: OD 630 nm at 24 hrs divided by OD of control (control = 1): 1.2536
S. mitis; 5 μmol/ml
  biofilm growth: OD 630 nm at 24 hrs divided by OD of control (control = 1): 1.9433
S. mitis; 10 μmol/ml
  biofilm growth: OD 630 nm at 24 hrs divided by OD of control (control = 1): 1.5717
S. mitis; 20 μmol/ml
  biofilm growth: OD 630 nm at 24 hrs divided by OD of control (control = 1): 0.5236
S. mitis; 25 μmol/ml
  biofilm growth: OD 630 nm at 24 hrs divided by OD of control (control = 1): 0.3988
S. mutans; 5 μmol/ml
  biofilm growth: OD 630 nm at 24 hrs divided by OD of control (control = 1): 1.0356
S. mutans; 10 μmol/ml
  biofilm growth: OD 630 nm at 24 hrs divided by OD of control (control = 1): 1.1168
S. mutans; 20 μmol/ml
  biofilm growth: OD 630 nm at 24 hrs divided by OD of control (control = 1): 1.1403
S. mutans; 25 μmol/ml
  biofilm growth: OD 630 nm at 24 hrs divided by OD of control (control = 1): 1.1529
S. salivarius; 5 μmol/ml
  biofilm growth: OD 630 nm at 24 hrs divided by OD of control (control = 1): 0.9812
S. salivarius; 10 μmol/ml
  biofilm growth: OD 630 nm at 24 hrs divided by OD of control (control = 1): 0.9793
S. salivarius; 20 μmol/ml
  biofilm growth: OD 630 nm at 24 hrs divided by OD of control (control = 1): 0.8441
S. salivarius; 25 μmol/ml
  biofilm growth: OD 630 nm at 24 hrs divided by OD of control (control = 1): 0.8731
S. sanguinis; 5 μmol/ml
  biofilm growth: OD 630 nm at 24 hrs divided by OD of control (control = 1): 2.0761
S. sanguinis; 10 μmol/ml
  biofilm growth: OD 630 nm at 24 hrs divided by OD of control (control = 1): 2.7352
S. sanguinis; 20 μmol/ml
  biofilm growth: OD 630 nm at 24 hrs divided by OD of control (control = 1): 1.6356
S. sanguinis; 25 μmol/ml
  biofilm growth: OD 630 nm at 24 hrs divided by OD of control (control = 1): 1.9363
T. forsythia; 5 μmol/ml
  biofilm growth: OD 630 nm at 24 hrs divided by OD of control (control = 1): 0.8918
T. forsythia; 10 μmol/ml
  biofilm growth: OD 630 nm at 24 hrs divided by OD of control (control = 1): 0.9297
T. forsythia; 20 μmol/ml
  biofilm growth: OD 630 nm at 24 hrs divided by OD of control (control = 1): 0.7855
T. forsythia; 25 μmol/ml
  biofilm growth: OD 630 nm at 24 hrs divided by OD of control (control = 1): 0.8404
V. parvula; 5 μmol/ml
  biofilm growth: OD 630 nm at 24 hrs divided by OD of control (control = 1): 1.2298
V. parvula; 10 μmol/ml
  biofilm growth: OD 630 nm at 24 hrs divided by OD of control (control = 1): 1.3941
V. parvula; 20 μmol/ml
  biofilm growth: OD 630 nm at 24 hrs divided by OD of control (control = 1): 1.4942
V. parvula; 25 μmol/ml
  biofilm growth: OD 630 nm at 24 hrs divided by OD of control (control = 1): 1.3055
